Data reported in ChEMBL document CHEMBL3994586, “Treatment of estrogen-dependent diseases: Design, synthesis and profiling of a selective 17β-HSD1 inhibitor with sub-nanomolar IC50 for a proof-of-principle study” (Eur J Med Chem, 2017).

Target: T1, 17-beta-hydroxysteroid dehydrogenase type 1 (Homo sapiens, UniProt P14061)
T1 sequence (P14061 whole entry): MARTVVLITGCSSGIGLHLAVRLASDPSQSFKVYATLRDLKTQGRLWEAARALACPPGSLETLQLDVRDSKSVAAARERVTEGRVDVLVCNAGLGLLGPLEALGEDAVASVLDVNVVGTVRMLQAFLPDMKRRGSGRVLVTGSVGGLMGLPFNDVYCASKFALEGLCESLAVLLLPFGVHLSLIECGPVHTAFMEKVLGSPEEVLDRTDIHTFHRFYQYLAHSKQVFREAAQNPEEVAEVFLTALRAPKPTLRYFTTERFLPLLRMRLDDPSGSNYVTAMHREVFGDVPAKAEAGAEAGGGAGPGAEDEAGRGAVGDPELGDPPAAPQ
Test: Inhibition of human placental cytosolic 17beta-HSD1 assessed as reduction in activation of [2,4,6,7-3H]-E1 substrate to E2 after 10 mins in presence of NADH by RP-HPLC method
Details: not given

IC50 [nM] | SMILES
55 | NS(=O)(=O)c1cccc(-c2ccc(C(=O)c3c(F)ccc(O)c3F)s2)c1
3 | O=C(c1ccc(-c2ccc(O)cc2)s1)c1c(F)ccc(O)c1F
47 | O=C(c1ccc(-c2ccc(F)cc2F)s1)c1cccc(O)c1F
18 | COc1ccc(-c2ccc(C(=O)c3c(F)ccc(O)c3F)s2)cc1
18 | O=C(c1ccc(-c2cc(Cl)c(O)c(Cn3ccnn3)c2)s1)c1c(F)ccc(O)c1F
0.5 | COc1c(Cl)cc(-c2ccc(C(=O)c3c(F)ccc(O)c3F)s2)cc1Cl
73 | O=C(c1cccc(O)c1)c1ccc(-c2cc(Cl)c(O)c(Cl)c2)s1
11 | O=C(c1ccc(-c2ccccc2)s1)c1c(F)ccc(O)c1F
105 to 110 | O=C(c1cccc(O)c1)c1ccc(-c2ccc(F)cc2F)s1
6 | COc1c(Cl)cc(-c2ccc(C(=O)c3cccc(O)c3)s2)cc1Cl

Target: T2, 17-beta-hydroxysteroid dehydrogenase type 2 (Homo sapiens, UniProt P37059)
T2 sequence (P37059 whole entry): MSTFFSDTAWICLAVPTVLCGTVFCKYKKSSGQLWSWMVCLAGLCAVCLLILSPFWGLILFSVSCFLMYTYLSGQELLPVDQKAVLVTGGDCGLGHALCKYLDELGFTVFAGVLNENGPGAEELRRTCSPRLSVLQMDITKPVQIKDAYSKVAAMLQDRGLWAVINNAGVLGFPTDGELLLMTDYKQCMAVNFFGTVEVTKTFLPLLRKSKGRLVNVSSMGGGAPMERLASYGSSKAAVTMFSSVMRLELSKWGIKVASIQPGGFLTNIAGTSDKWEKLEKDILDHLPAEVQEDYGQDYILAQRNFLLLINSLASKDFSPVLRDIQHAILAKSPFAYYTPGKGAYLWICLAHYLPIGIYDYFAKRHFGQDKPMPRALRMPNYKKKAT
Test: Inhibition of human placental microsomal 17beta-HSD2 using [2,4,6,7-3H]-E2 as substrate after 20 mins in presence of NAD+ by RP-HPLC method
Details: not given

IC50 [nM] | SMILES
86 | NS(=O)(=O)c1cccc(-c2ccc(C(=O)c3c(F)ccc(O)c3F)s2)c1
71 | O=C(c1ccc(-c2ccc(O)cc2)s1)c1c(F)ccc(O)c1F
55 | O=C(c1ccc(-c2ccc(F)cc2F)s1)c1cccc(O)c1F
38 | COc1ccc(-c2ccc(C(=O)c3c(F)ccc(O)c3F)s2)cc1
26 | O=C(c1ccc(-c2cc(Cl)c(O)c(Cn3ccnn3)c2)s1)c1c(F)ccc(O)c1F
540 | O=C(c1cccc(O)c1)c1ccc(-c2cc(Cl)c(O)c(Cl)c2)s1
35 | O=C(c1ccc(-c2ccccc2)s1)c1c(F)ccc(O)c1F
140 | O=C(c1cccc(O)c1)c1ccc(-c2ccc(F)cc2F)s1
250 | COc1c(Cl)cc(-c2ccc(C(=O)c3cccc(O)c3)s2)cc1Cl

Target: T3, Estrogen receptor alpha (ERalpha) (Homo sapiens, UniProt P03372)
T3 sequence (P03372 whole entry): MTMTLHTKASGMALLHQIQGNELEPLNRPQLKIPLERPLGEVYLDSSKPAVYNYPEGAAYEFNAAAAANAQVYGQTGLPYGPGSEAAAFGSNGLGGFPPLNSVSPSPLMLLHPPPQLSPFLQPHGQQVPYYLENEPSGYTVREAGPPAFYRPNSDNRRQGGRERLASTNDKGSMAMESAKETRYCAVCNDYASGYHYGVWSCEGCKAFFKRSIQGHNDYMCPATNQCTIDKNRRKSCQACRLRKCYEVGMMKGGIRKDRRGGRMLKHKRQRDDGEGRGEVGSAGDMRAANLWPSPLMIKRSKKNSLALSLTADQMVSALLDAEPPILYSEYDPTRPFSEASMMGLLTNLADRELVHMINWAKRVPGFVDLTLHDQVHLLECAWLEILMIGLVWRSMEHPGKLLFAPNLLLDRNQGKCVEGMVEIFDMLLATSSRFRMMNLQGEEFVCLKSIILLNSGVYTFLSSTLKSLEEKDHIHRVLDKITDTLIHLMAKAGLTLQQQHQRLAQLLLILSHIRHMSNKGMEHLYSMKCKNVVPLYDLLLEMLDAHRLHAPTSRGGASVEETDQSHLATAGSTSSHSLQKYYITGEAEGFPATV
Test: Displacement of [3H]E2 from human recombinant ERalpha assessed as receptor binding at 3 uM after 16 to 20 hrs by liquid scintillation counting method relative to control
Details: probe [3H]E2, read-out: Activity

activity at 3 µM [%] | SMILES
27 | COc1c(Cl)cc(-c2ccc(C(=O)c3c(F)ccc(O)c3F)s2)cc1Cl
8 | COc1c(Cl)cc(-c2ccc(C(=O)c3cccc(O)c3)s2)cc1Cl

Target: Estrogen receptor beta (ERbeta) (Homo sapiens, UniProt Q92731)
Test: Displacement of [3H]E2 from human recombinant ERbeta assessed as receptor binding at 10 uM after 16 to 20 hrs by liquid scintillation counting method relative to control
Details: probe [3H]E2, read-out: Activity

Chain of Estrogen receptor beta (ERbeta) (Q92731 whole entry): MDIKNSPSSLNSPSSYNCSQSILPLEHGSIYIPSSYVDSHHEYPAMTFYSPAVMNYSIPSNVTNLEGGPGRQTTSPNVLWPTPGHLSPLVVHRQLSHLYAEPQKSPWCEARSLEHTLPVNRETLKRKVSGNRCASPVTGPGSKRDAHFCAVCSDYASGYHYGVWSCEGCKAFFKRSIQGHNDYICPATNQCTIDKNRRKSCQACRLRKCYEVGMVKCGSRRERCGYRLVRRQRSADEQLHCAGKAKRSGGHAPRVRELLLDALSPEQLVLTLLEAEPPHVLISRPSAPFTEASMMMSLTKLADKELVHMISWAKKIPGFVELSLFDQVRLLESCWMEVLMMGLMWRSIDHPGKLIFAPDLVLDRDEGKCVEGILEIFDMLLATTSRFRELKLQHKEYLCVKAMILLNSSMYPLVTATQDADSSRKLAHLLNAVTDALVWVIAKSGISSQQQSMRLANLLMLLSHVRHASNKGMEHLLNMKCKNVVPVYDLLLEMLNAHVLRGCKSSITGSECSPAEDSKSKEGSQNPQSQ

activity at 10 µM [%] | SMILES
8 | COc1c(Cl)cc(-c2ccc(C(=O)c3c(F)ccc(O)c3F)s2)cc1Cl
0 | COc1c(Cl)cc(-c2ccc(C(=O)c3cccc(O)c3)s2)cc1Cl

Tested on: HEK293
Test: Cytotoxicity against HEK293 cells assessed as reduction in cell viability up to 5.6 uM after 66 hrs by MTT assay
Format: cell-based
Details: human, hek293, 66 h

SMILES | Activity
COc1c(Cl)cc(-c2ccc(C(=O)c3c(F)ccc(O)c3F)s2)cc1Cl | Non-Toxic

Tested on: not listed separately
Test: Selectivity index, ratio of IC20 for HEK293 cells to IC50 for human placental cytosolic 17beta-HSD1
Details: not given

SMILES | Selectivity Index
COc1c(Cl)cc(-c2ccc(C(=O)c3c(F)ccc(O)c3F)s2)cc1Cl | 11160

Tested on: Salmonella typhimurium
Test: Mutagenicity in Salmonella typhimurium TA7001/7002/7003/7004/7005/7006 up to 100 uM by Ames 2 assay
Format: toxicity
Details: salmonella enterica subsp. enterica serovar typhimurium

SMILES | Activity
COc1c(Cl)cc(-c2ccc(C(=O)c3c(F)ccc(O)c3F)s2)cc1Cl | Non-Toxic

Tested on: Salmonella typhimurium
Test: Mutagenicity in Salmonella typhimurium TA7001/7002/7003/7004/7005/7006 up to 100 uM in presence of rat liver S9 fraction by Ames 2 assay
Format: toxicity
Details: salmonella enterica subsp. enterica serovar typhimurium

SMILES | Activity
COc1c(Cl)cc(-c2ccc(C(=O)c3c(F)ccc(O)c3F)s2)cc1Cl | Non-Toxic

Tested on: Salmonella typhimurium
Test: Mutagenicity in Salmonella typhimurium TA98 up to 100 uM by Ames 2 assay
Format: toxicity
Details: salmonella enterica subsp. enterica serovar typhimurium

SMILES | Activity
COc1c(Cl)cc(-c2ccc(C(=O)c3c(F)ccc(O)c3F)s2)cc1Cl | Non-Toxic

Tested on: Salmonella typhimurium
Test: Mutagenicity in Salmonella typhimurium TA98 up to 100 uM in presence of rat liver S9 fraction by Ames 2 assay
Format: toxicity
Details: salmonella enterica subsp. enterica serovar typhimurium

SMILES | Activity
COc1c(Cl)cc(-c2ccc(C(=O)c3c(F)ccc(O)c3F)s2)cc1Cl | Non-Toxic

Target: T4, PXR (NR1I2) (Homo sapiens, UniProt O75469)
T4 sequence (O75469 whole entry): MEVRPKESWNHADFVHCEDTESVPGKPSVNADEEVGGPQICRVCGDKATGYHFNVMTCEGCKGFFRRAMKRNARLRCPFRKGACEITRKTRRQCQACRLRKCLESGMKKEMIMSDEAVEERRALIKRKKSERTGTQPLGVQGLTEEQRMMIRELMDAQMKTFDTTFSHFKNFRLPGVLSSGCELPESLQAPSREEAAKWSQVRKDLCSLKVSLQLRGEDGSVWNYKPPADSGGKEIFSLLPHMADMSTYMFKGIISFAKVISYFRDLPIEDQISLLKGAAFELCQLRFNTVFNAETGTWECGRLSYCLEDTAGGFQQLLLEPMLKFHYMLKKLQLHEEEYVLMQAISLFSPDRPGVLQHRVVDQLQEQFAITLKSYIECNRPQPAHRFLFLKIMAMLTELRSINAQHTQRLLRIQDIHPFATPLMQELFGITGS
Test: Agonist activity at recombinant human PXR at 3.16 uM by co-factor recruitment assay relative to control
Format: ADME
Details: read-out: Activity

activity at 3.16 µM [%] | SMILES
< 5 | COc1c(Cl)cc(-c2ccc(C(=O)c3c(F)ccc(O)c3F)s2)cc1Cl

Target: T5, CYP1A2 (Homo sapiens, UniProt P05177)
T5 sequence (P05177 whole entry): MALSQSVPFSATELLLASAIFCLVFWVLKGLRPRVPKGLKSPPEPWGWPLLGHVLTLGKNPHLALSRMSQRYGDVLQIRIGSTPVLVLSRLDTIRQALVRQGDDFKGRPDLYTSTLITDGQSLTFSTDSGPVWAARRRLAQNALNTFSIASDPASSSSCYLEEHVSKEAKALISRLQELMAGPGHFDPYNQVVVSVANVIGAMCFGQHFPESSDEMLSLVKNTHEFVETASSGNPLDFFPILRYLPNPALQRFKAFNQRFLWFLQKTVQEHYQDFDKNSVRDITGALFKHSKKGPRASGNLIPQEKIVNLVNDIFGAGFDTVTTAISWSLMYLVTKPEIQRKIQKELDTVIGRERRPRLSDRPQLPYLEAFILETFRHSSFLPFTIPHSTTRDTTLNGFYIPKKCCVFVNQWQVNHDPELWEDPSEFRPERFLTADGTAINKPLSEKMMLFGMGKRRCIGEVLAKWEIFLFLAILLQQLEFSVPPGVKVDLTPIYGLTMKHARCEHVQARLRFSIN
Test: Inhibition of recombinant human CYP1A2 expressed in baculovirus infected insect cell microsomes at 1 uM relative to control
Format: ADME
Details: not given

inhibition at 1 µM [%] | SMILES
11 | COc1c(Cl)cc(-c2ccc(C(=O)c3c(F)ccc(O)c3F)s2)cc1Cl

Target: T6, CYP2B6 (Homo sapiens, UniProt P20813)
T6 sequence (P20813 whole entry): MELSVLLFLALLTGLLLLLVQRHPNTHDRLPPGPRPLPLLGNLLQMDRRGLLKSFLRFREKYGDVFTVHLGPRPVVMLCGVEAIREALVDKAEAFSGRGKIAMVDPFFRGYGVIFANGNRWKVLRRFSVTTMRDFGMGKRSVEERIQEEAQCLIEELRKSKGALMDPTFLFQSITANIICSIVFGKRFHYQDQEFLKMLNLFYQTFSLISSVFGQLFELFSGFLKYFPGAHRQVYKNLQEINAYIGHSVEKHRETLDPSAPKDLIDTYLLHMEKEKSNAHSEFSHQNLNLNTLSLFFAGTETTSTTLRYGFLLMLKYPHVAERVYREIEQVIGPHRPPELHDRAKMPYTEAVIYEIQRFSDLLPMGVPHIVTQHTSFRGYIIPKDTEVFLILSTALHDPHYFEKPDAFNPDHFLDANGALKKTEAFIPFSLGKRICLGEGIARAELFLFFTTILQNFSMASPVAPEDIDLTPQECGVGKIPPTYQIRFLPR
Test: Inhibition of recombinant human CYP2B6 expressed in baculovirus infected insect cell microsomes at 1 uM relative to control
Format: ADME
Details: not given

inhibition at 1 µM [%] | SMILES
4 | COc1c(Cl)cc(-c2ccc(C(=O)c3c(F)ccc(O)c3F)s2)cc1Cl

Target: CYP2C9 (Homo sapiens, UniProt P11712)
Test: Inhibition of recombinant human CYP2C9 expressed in baculovirus infected insect cell microsomes at 1 uM relative to control
Format: ADME
Details: not given

Chain of CYP2C9 (P11712 whole entry): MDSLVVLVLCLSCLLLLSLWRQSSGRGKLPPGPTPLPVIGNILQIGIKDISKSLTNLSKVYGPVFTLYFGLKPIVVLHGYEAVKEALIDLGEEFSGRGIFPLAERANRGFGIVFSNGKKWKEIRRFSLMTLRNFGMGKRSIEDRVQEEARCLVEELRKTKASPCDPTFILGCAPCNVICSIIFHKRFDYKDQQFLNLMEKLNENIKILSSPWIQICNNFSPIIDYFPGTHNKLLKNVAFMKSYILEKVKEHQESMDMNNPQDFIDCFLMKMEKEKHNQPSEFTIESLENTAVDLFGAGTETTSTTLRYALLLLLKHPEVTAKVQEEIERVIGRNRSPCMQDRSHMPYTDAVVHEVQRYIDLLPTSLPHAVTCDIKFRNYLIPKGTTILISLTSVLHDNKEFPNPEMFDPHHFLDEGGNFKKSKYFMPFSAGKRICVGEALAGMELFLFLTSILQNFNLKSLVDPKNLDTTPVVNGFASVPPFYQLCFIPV

inhibition at 1 µM [%] | SMILES
0 | COc1c(Cl)cc(-c2ccc(C(=O)c3c(F)ccc(O)c3F)s2)cc1Cl

Target: CYP2C19 (Homo sapiens, UniProt P33261)
Test: Inhibition of recombinant human CYP2C19 expressed in baculovirus infected insect cell microsomes at 1 uM relative to control
Format: ADME
Details: not given

Chain of CYP2C19 (P33261 whole entry): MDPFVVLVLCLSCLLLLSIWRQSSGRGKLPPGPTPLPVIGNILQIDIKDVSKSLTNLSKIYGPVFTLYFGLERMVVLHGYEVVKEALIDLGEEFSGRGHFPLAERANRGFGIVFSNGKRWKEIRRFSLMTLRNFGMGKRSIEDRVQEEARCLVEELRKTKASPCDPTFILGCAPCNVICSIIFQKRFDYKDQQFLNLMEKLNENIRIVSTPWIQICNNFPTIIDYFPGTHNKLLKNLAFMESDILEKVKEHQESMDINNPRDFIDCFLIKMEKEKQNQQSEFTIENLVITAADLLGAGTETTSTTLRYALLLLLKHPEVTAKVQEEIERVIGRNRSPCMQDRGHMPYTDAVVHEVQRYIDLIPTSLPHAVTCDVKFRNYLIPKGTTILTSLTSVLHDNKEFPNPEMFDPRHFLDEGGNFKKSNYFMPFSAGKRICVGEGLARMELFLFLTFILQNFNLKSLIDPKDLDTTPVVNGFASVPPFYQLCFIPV

inhibition at 1 µM [%] | SMILES
27 | COc1c(Cl)cc(-c2ccc(C(=O)c3c(F)ccc(O)c3F)s2)cc1Cl

Target: CYP2D6 (Homo sapiens, UniProt P10635)
Test: Inhibition of recombinant human CYP2D6 expressed in baculovirus infected insect cell microsomes at 1 uM relative to control
Format: ADME
Details: not given

Chain of CYP2D6 (P10635 whole entry): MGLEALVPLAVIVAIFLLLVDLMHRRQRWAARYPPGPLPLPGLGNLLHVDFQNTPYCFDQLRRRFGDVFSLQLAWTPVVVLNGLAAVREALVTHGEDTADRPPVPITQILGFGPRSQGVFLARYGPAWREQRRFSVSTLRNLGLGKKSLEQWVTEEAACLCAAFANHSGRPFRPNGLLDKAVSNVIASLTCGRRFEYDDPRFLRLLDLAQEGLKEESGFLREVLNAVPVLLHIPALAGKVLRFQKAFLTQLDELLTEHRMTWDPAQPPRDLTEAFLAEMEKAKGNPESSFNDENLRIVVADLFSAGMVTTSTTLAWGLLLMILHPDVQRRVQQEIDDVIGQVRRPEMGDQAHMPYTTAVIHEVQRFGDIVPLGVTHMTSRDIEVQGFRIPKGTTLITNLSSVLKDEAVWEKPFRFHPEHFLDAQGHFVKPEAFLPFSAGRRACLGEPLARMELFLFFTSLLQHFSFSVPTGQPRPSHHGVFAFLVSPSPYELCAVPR

inhibition at 1 µM [%] | SMILES
0 | COc1c(Cl)cc(-c2ccc(C(=O)c3c(F)ccc(O)c3F)s2)cc1Cl

Target: CYP3A4 (Homo sapiens, UniProt P08684)
Test: Inhibition of recombinant human CYP3A4 expressed in baculovirus infected insect cell microsomes at 1 uM relative to control
Format: ADME
Details: not given

Chain of CYP3A4 (P08684 whole entry): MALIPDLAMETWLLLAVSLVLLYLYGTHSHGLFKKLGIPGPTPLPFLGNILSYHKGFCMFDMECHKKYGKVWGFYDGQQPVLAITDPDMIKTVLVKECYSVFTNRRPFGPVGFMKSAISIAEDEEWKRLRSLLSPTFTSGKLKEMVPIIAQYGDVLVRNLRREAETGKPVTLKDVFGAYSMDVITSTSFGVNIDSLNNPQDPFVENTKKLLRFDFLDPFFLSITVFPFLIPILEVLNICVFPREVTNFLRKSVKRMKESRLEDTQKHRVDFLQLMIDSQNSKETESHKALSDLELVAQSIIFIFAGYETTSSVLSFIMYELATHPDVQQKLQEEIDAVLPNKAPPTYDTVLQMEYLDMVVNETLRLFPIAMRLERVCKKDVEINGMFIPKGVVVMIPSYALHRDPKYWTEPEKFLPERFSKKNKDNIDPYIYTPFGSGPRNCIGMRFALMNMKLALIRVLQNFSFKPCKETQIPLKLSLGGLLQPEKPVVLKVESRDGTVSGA

inhibition at 1 µM [%] | SMILES
36 | COc1c(Cl)cc(-c2ccc(C(=O)c3c(F)ccc(O)c3F)s2)cc1Cl

Tested on: Plasma
Test: Plasma concentration in Sprague-Dawley rat at 150 umol/kg, sc qd for 4 consecutive days measured on day 2 post dose by HPLC-MS analysis
Format: ADME, organism-based
Details: in vivo

concentration [nM] | SMILES
24 | COc1c(Cl)cc(-c2ccc(C(=O)c3c(F)ccc(O)c3F)s2)cc1Cl

Tested on: Plasma
Test: Plasma concentration in Sprague-Dawley rat at 150 umol/kg, sc qd for 4 consecutive days measured on day 4 post dose by HPLC-MS analysis
Format: ADME, organism-based
Details: in vivo

concentration [nM] | SMILES
42 | COc1c(Cl)cc(-c2ccc(C(=O)c3c(F)ccc(O)c3F)s2)cc1Cl

Tested on: Plasma
Test: Plasma concentration in Sprague-Dawley rat at 150 umol/kg, sc qd for 4 consecutive days measured on day 8 post dose by HPLC-MS analysis
Format: ADME, organism-based
Details: in vivo

concentration [nM] | SMILES
72 | COc1c(Cl)cc(-c2ccc(C(=O)c3c(F)ccc(O)c3F)s2)cc1Cl
